Reference: paper PMC8395317, “The Simple Method of Preparation of Highly Carboxylated Bacterial Cellulose with Ni- and Mg-Ferrite-Based Versatile Magnetic Carrier for Enzyme Immobilization” (International Journal of Molecular Sciences, 2021)

Test system: T1, phospholipase A (PLA, Lecitase Ultra)
T1 construct: gene LIP; one fused chain: T. lanuginosus lipase N-terminal part (1-284) + F. oxysporum phospholipase A1 C-terminal part (285-339); commercial Lecitase Ultra (Sigma-Aldrich), used without further purification; free form
Assay: p-nitrophenol release, absorbance […] nm, Michaelis-Menten nonlinear fit
Type: biochemical, Thermomyces lanuginosus
Settings: free enzyme; 0.1 to 1.2 mmol/L pNPB, 50 mmol/L phosphate pH 7.0, 0.004% Triton X-100, 30 °C

Compound `CCCC(=O)Oc1ccc([N+](=O)[O-])cc1` [p-nitrophenyl-butyrate] has a Km of 490 ± 100 µM.
